Data as given in paper PMC8654920, “PET imaging of brain aromatase in humans and rhesus monkeys by ^11C-labeled cetrozole analogs” (Scientific Reports, 2021).
pIC50: −log10 of the molar value.

Each molecule was assayed against T1, aromatase (Callithrix jacchus, UniProt Q95M61) (assay: inhibition of [[…]-14C]testosterone conversion by placental microsomes, TLC autoradiography).
T1 construct: gene CYP19A1; microsomal fraction of marmoset placenta
T1 sequence (Q95M61 1-503): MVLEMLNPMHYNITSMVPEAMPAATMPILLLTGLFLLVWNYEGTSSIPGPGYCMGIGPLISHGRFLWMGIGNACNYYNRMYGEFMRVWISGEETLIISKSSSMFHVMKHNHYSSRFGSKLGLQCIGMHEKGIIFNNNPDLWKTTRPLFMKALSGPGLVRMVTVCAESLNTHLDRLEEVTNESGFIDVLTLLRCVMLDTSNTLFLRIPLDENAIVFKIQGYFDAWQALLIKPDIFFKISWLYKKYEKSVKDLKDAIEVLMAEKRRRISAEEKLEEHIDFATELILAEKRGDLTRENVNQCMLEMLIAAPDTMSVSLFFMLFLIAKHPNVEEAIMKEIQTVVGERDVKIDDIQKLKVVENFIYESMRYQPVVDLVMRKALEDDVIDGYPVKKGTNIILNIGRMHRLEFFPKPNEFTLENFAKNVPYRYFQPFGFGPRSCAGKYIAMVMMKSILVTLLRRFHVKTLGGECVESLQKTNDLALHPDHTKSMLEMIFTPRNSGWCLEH
Type: biochemical

pIC50 | Compound
9.17 | Cc1ccc(CN(c2ccc(C#N)cc2)n2cncn2)cc1 [iso-cetrozole]
8.46 | Cc1cccc(CN(c2ccc(C#N)cc2)n2cnnc2)c1 [meta-cetrozole]
9.14 | Cc1ccc(CN(c2ccc([N+](=O)[O-])cc2)n2cnnc2)cc1 [nitro-cetrozole]
9.01 | Cc1ccc(CN(c2ccc(C#N)cc2)n2cnnc2)cc1 [cetrozole]
